Measurements published in ChEMBL document CHEMBL1138971, “CA224, a non-planar analogue of fascaplysin, inhibits Cdk4 but not Cdk2 and arrests cells at G0/G1 inhibiting pRB phosphorylation” (Bioorg Med Chem Lett, 2006).
Blank lines part the entries; values can stand above or below the compound they belong to. Active and inactive are the calls of the source. The calls are words filed in the database; no cut-off is given here. Starred links: 1 amine or outer side, 2 acyl side, 3 side chain; linkers in the order of their positions; H or OH if unused. Positions of bridges follow the written chain, without caps; N, C: chain ends. Non-standard residues stand in square brackets, D forms with d. Residues, ends and D or L forms follow the SMILES beside them. Chains are numbered I, II in the order given. Actinocin(1to9) = Cc1c2oc3c(C)ccc(C(=O)[*:2])c3nc-2c(C(=O)[*:1])c(N)c1=O; NMeV = CN[C@H](C(=O)O)C(C)C; Sar = CNCC(=O)O

Legend:
[1] = target: Cyclin-dependent kinase 2/cyclin A (Homo sapiens, UniProt P24941); experiment: Inhibition of Cdk2/Cyclin A; format: protein-complex assay
LS174T = experiment: Antiproliferative activity against LS174T cells; format: functional, cell-based; details: Homo sapiens
[2] = target: Cyclin-dependent kinase 4/cyclin D1 (Homo sapiens, UniProt P11802); experiment: Inhibition of Cdk4/Cyclin D1; format: protein-complex assay
PC-3 = experiment: Antiproliferative activity against PC3 cells; format: functional, cell-based; details: Homo sapiens
Calf thymus DNA = experiment: Ability to displace ethidium bromide from DNA; format: nucleic-acid assay
Calu-1 = experiment: Antiproliferative activity against Calu1 cells; format: functional, cell-based; details: Homo sapiens
A549 = experiment: Antiproliferative activity against A549 cells; format: functional, cell-based; details: Homo sapiens

Cyclin-dependent kinase 4/cyclin D1, sequence (P11802 whole entry): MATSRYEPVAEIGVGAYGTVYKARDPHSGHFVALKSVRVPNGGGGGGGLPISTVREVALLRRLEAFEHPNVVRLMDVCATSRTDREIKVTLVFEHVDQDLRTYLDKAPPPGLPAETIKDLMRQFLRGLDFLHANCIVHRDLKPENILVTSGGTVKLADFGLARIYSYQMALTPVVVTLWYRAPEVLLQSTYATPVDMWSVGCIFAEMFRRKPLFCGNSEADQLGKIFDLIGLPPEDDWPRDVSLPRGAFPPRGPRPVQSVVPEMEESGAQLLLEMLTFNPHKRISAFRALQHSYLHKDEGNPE
Cyclin-dependent kinase 4/cyclin D1, sequence (P24385 whole entry, further chain): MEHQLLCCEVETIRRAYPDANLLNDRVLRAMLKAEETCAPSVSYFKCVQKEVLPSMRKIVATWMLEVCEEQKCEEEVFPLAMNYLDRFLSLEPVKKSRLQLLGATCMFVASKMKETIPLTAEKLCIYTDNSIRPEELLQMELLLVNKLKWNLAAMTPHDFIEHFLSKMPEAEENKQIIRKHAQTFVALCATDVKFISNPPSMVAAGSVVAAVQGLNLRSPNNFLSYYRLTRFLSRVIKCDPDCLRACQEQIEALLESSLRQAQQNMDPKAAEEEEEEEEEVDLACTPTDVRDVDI

SMILES: CN(CCc1c[nH]c2ccccc12)C(=O)c1ccc(C(C)(C)C)cc1
IC50 [1]: 658 µM | IC50 (LS174T): 18 µM | IC50 [2]: 49 µM | IC50 (PC-3): 15 µM | Activity (Calf thymus DNA): inactive | IC50 (Calu-1): 52 µM | IC50 (A549): 12 µM

SMILES: CN(CCc1c[nH]c2ccccc12)C(=O)c1ccc(Br)cc1
IC50 [1]: 580 µM | IC50 (LS174T): 52 µM | IC50 [2]: 37 µM | IC50 (PC-3): 36 µM | Activity (Calf thymus DNA): inactive | IC50 (Calu-1): 64 µM | IC50 (A549): 55 µM

SMILES: CN(CCc1c[nH]c2ccccc12)C(=O)c1cccc(F)c1
IC50 [1]: 765 µM | IC50 (LS174T): 97 µM | IC50 [2]: 88 µM | IC50 (PC-3): 98 µM | Activity (Calf thymus DNA): inactive | IC50 (Calu-1): 136 µM | IC50 (A549): 106 µM

SMILES: Cc1ccc(C(=O)N(C)CCc2c[nH]c3ccccc23)cc1
IC50 [1]: 790 µM | IC50 (LS174T): 82 µM | IC50 [2]: 63 µM | IC50 (PC-3): 55 µM | Activity (Calf thymus DNA): inactive | IC50 (Calu-1): 103 µM | IC50 (A549): 92 µM

SMILES: CN(CCc1c[nH]c2ccccc12)C(=O)c1cccc(Cl)c1
IC50 [1]: 1120 µM | IC50 (LS174T): 118 µM | IC50 [2]: 109 µM | IC50 (PC-3): 94 µM | Activity (Calf thymus DNA): inactive | IC50 (Calu-1): 123 µM | IC50 (A549): 95 µM

SMILES: CN(CCc1c[nH]c2ccccc12)C(=O)c1ccccc1F
IC50 [1]: 1230 µM | IC50 (LS174T): 110 µM | IC50 [2]: 103 µM | IC50 (PC-3): 108 µM | Activity (Calf thymus DNA): inactive | IC50 (Calu-1): 145 µM | IC50 (A549): 103 µM

SMILES: CN(CCc1c[nH]c2ccccc12)C(=O)c1ccccc1
IC50 [1]: 1520 µM | IC50 (LS174T): 83 µM | IC50 [2]: 88 µM | IC50 (PC-3): 86 µM | Activity (Calf thymus DNA): inactive | IC50 (Calu-1): 104 µM | IC50 (A549): 95 µM

SMILES: CN(CCc1c[nH]c2ccccc12)C(=O)c1ccccc1Cl
IC50 [1]: 784 µM | IC50 (LS174T): 99 µM | IC50 [2]: 46 µM | IC50 (PC-3): 92 µM | Activity (Calf thymus DNA): inactive | IC50 (Calu-1): 147 µM | IC50 (A549): 96 µM

IC50 (Calf thymus DNA): 35 µM
SMILES: Cc1c2oc3c(C)ccc(C(=O)N[C@@H]4C(=O)N[C@H](C(C)C)C(=O)N5CCC[C@H]5C(=O)N(C)CC(=O)N(C)[C@@H](C(C)C)C(=O)O[C@@H]4C)c3nc-2c(C(=O)N[C@@H]2C(=O)N[C@H](C(C)C)C(=O)N3CCC[C@H]3C(=O)N(C)CC(=O)N(C)[C@@H](C(C)C)C(=O)O[C@@H]2C)c(N)c1=O [DACTINOMYCIN] (I: T[dV]P[Sar][NMeV] / II: T[dV]P[Sar][NMeV]; ester I:1-I:C, II:1-II:C; linker I:N-II:N via Actinocin(1to9))
